Reference: paper PMC4297217 (Therapeutic Drug Monitoring, 2015)
One block for each compound: values may come before it.

Assays:
[1] = Citalopram serum concentration-to-dose
[2] = Escitalopram serum concentration-to-dose; details: patients aged 80 years; combined linear and square age model
[3] = Sertraline serum concentration-to-dose; type: in vivo, patients; details: concomitant PPI vs control group without PPI
[4] = with omeprazole, cited from earlier work

Compound: CN(C)CCCC1(c2ccc(F)cc2)OCc2cc(C#N)ccc21 (stereo not drawn) [Citalopram, citalopram]
- Citalopram C/D ratio, age effect ([1]; patients aged 80 years, combined linear and square age model): roughly doubled

Compound: CN(C)CCC[C@@]1(c2ccc(F)cc2)OCc2cc(C#N)ccc21 [Escitalopram, escitalopram]
- Escitalopram C/D ratio, age effect [2]: roughly doubled

The next lines start with results.

- Expected Sertraline C/D Ratio Percent Change [3]: no significant differences
Compound: Cc1c(OCC(F)(F)F)ccnc1C[S+]([O-])c1nc2ccccc2[nH]1 (stereo not drawn) [Lansoprazole, lansoprazole]

- Expected Sertraline C/D Ratio Percent Change [3]: no significant differences
Compound: COc1ccc2[nH]c([S+]([O-])Cc3ncc(C)c(OC)c3C)nc2c1 (stereo not drawn) [Omeprazole, omeprazole]
- increase in the concentration of R-citalopram ([4]; 9 healthy subjects): 25%
- increase in the concentration of S-citalopram ([4]; 9 healthy subjects): ~2 fold
- mean increase in the plasma concentration of escitalopram ([4]; healthy volunteers): ~100%

- Expected Citalopram C/D Ratio Percent Change ([1]; concomitant PPI vs control group without PPI): No significant effect
- Expected Sertraline C/D Ratio Percent Change [3]: no significant differences
Compound: COc1ccnc(C[S+]([O-])c2nc3ccc(OC(F)F)cc3[nH]2)c1OC (stereo not drawn) [Pantoprazole, pantoprazole]
